Data published in patent publication US8691261B2, “Drug, drug guidance system, magnetic detection system, and drug design method” (IHI Corporation, priority 2005, dated 2014).

Key:
[1] = compared to cisplatin; cited from earlier work
rat L6 cells = test: number of rat L6 cells in flask with bar magnet after sprinkling Fe complex powder; type: cell-based; conditions: 48 hours, bar magnet in contact with flask
Text: A group of samples shown on the left side is obtained by diluting a pyridine concentrate solution with water (double distilled water (DDW)), while a group of samples shown on the right side is obtained by diluting a pyridine iron complex saturated solution with pyridine. By changing the concentration of the iron complex in pyridine to, for example, ½ or 1/16 of the aforementioned concentration of the solution containing only pyridine, the MRI can detect changes in the concentration through images. Subsequently, when rat L6 cells were in 30% confluent state, Fe complex powder was sprinkled over a culture medium as much as required to enable visual observation of the Fe complex powder when being drawn to magnets. 48 hours later, the condition of the culture medium was photographed.
Referring to FIG. 22, “proximal to magnet” means within the projected area of the bottom of the rectangular flask in contact with the end face of the magnet, while “distal from magnet” means an area of the rectangular flask opposite the end face of the magnet. […] As a result, the magnetic drug and the system including the magnetic field generating means according to the present invention can concentrate the drug at the target affected part or tissues of an individual body.

[2] = magnetic guidance to mouse right kidney, SNR measured by MRI; type: in vivo; conditions: intravenous, 5 mg/ml (15 mM), right kidney approximately 0.3 T, 10 minutes
Text: Next, another example of a guidance system according to the present invention will be explained. In this guidance system, a pair of magnets 230 and 232 located opposite to each other in a direction of gravitational force is supported by a stand 234 and a clamp 235, and a metal plate 236 is placed between the magnets as shown in FIG. 23. A locally uniform and strong magnet field can be generated by placing the metal plate, particularly an iron plate, between the pair of magnets.
The drug can be concentrated on the target tissues by placing the tissues of the individual body in this area of the magnetic field. The aforementioned metal complex (drug concentration: 5 mg/ml (15 mM)) was administered intravenously to a mouse (weight: approximately 30 g), the abdominal cavity of the mouse was opened, and the mouse was then placed on the iron plate so that its right kidney was positioned between the pair of magnets.
The magnets used were neodymium permanent magnets made by Shin-Etsu Chemical Co., Ltd. (product number: N50; residual magnetic flux density: 1.39-1.44 T). […] The magnetic field was applied to the mouse's right kidney; and 10 minutes later, the SNR of the right kidney as well as the left kidney […] (control) to which no magnetic field was applied was measured in T1 mode and T2 mode, using the MRI system.

| Molecule | anticancer effect [1] | number of cells at area proximal to the magnet compared to area distal from the magnet (rat L6 cells) | amount of drug held in kidney tissues (SNR, T1 and T2 mode MRI) [2] |
| --- | --- | --- | --- |
| CC(C[NH-])CC[NH-].O=C([O-])C1(C(=O)[O-])CCC1.[Pt+4] [NK121] | comparable to that of cisplatin | – | – |
| Fe-salen | – | extremely low | larger amount of the drug could be held in the tissues of the right kidney (RT) |
